# Entries after “also recorded” stand apart in the source; their conditions may differ.
# Experiments:
# [1] = tested on: U266 cells; assay: Cell viability by MTT method; assay type: cell-based, human; conditions: U266, 24 h, different concentrations
# Procedure: The results are shown as the mean (±s.d.) percent viability from triplicate cultures.
# (§1) Briefly, cells (5000/well) were incubated in triplicate in a 96-well plate in the presence or absence of indicated test samples in a final volume of 0.1 ml for 24 h at 37° C. Thereafter, 0.025 ml of MTT solution (5 mg/ml in PBS) was added to each well. After a 2 h incubation at 37 ° C., 0.1 ml of extraction buffer (20% SDS, 50% dimethylformamide) was added. Incubation was continued for overnight at 37 ° C., and then the OD at 590 nm was measured using a 96-well multiscanner autoreader (Dynatech MR 5000), with extraction buffer as blank. Percent cell viability=(OD of the experiment samples/OD of the control)×100.
# [2] = tested on: CD138+ cells from multiple myeloma patients; assay: Viability of bone marrow CD138+ cells from multiple myeloma patients (MTT or trypan blue); assay type: cell-based, human; conditions: 24 h
# Procedure: as §1
# [3] = tested on: caspase-9; assay: Western blot for procaspase-9 (apoptosis); assay type: cell-based, human; conditions: U266, curcumin 50 μM, time course
# Procedure: (§2) The cells were washed and total proteins were extracted by lysing the cells. Sixty microgram of extracts were resolved on 10% SDS-PAGE gel, electrotransferred to a nitrocellulose membrane, and probed with anti-procaspase-9 (FIG. 6C), anti-procaspase-7 (FIG. 6D), anti-PARP (FIG. 6E, upper panel) and anti-cleaved PARP (FIG. 6E, lower penal). […] Lysates were then spun at 14000 rpm for 10 min to remove insoluble material, resolved on 7.5% gel and probed with PARP antibodies. PARP was cleaved from the 116-kDa intact protein into 85-kDa and 40-kDa peptide products. To detect cleavage products of procaspase 7 and procaspase 9, whole cell extracts were resolved on 10% gel and probed with appropriate antibodies.
# [4] = tested on: IL-6; assay: IL-6 ELISA of culture supernatants; assay type: cell-based, human; conditions: U266 cells, curcumin (legend b20: 10 mM)
# Procedure: Sixty micrograms of cytoplasmic extracts were resolved on 10% SDS-PAGE gel, electrotransferred on a nitrocellulose membrane, and probed for the following: IκBα (FIG. 4A); Bcl-2 (FIG. 4B); Bcl-xL (FIG. 4C) and cyclin D1 (FIG. 4D). The same blots were stripped and reprobed with anti-β-actin antibody to show equal protein loading (lower panel in each figure). FIG. 4E: […] U266, MM.1 or RPMI 8226 cells (1×10^7) were treated with curcumin ([…]) in 5 ml of medium for the indicated times. Supernatants were harvested and concentrated approximately 20×, and IL-6 was quantitated by an IL-6 ELISA kit. Values shown were normalized to 1 ml of un-concentrated supernatants. […] One hundred microliter aliquots were removed, and IL-6 contents were determined by an ELISA kit (Biosource International).
# [5] = tested on: U266 cells; assay: Cytotoxic effect of vincristine with or without curcumin (MTT); assay type: cell-based, human; conditions: U266, curcumin 10 μM alone, 24 h
# Procedure: as §1, with “The antiproliferative effects of curcumin against different multiple myeloma cell lines were determined by the MTT dye uptake method as described earlier (Manna et al., 1998). Briefly,” for “Briefly,”
# [6] = tested on: RPMI 8226; assay: Growth of cells, viable cell count by trypan blue dye exclusion; assay type: cell-based; conditions: Homo sapiens; RPMI 8226, curcumin 1 μM
# Description: (§3) The results are shown as the mean (±s. d.) cell count from triplicate cultures.
# [7] = tested on: MM.1R; assay: as above; assay type: cell-based; conditions: Homo sapiens, curcumin 1 μM
# Description: as §3
# [8] = tested on: MM.1; assay: as above; assay type: cell-based; conditions: Homo sapiens, Mm1; MM.1, curcumin 1 μM
# Description: as §3
# [9] = tested on: U266; assay: as above; assay type: cell-based; conditions: Homo sapiens, U-266; U266, curcumin 1 μM
# Description: as §3
# [10] = tested on: U266 cells; assay: Flow cytometric cell cycle analysis (propidium iodide); assay type: cell-based, human; conditions: U266, 10 μM curcumin, 24 h
# Procedure: U266 cells (2×10^6 cells/ml) were incubated in the absence or presence of curcumin (10 μM) for the indicated times. The cells were then washed, fixed, stained with propidium iodide, and analyzed for DNA content by flow cytometry. […] After incubation for overnight at −20° C., cells were washed with PBS prior to staining with propidium iodide (PI), and then suspended in staining buffer (PI, […]; Tween-20, 0.5%; RNase, 0.1% in PBS). The cells were analyzed using a FACS Vantage flow cytometer that uses CellQuest acquisition and analysis programs (Becton Dickinson, San Jose, Calif.).
# [11] = tested on: caspase-7; assay: Western blot for procaspase-7 (apoptosis); assay type: cell-based, human; conditions: U266, curcumin 50 μM, time course
# Procedure: as §2
# [12] = tested on: multiple myeloma cell lines (U266, RPMI 8226, MM.1, MM.1R); assay: Growth/proliferation of all multiple myeloma cell lines tested (statement for all lines); assay type: cell-based, human; conditions: curcumin 10 μM
# Description: as §3
smiles,measurement,setting,value
"COc1cc(/C=C/C(=O)CC(=O)/C=C/c2ccc(O)c(OC)c2)ccc1O [curcumin, diferuloylmethane]",cell viability / mitochondrial activity (MTT),[1],suppressed mitochondrial activity; also recorded: decreased cell survival in a dose-dependent manner
same,cell survival,"[2]; patient #20, indicated concentrations, MTT",much more effective in inhibiting the survival of multiple myeloma cells than dexamethasone
same,cell survival,"[2]; patients #7, #9 and #10, different concentrations",decreased cell survival in a dose-dependent manner
same,activation of caspase-9 (disappearance of 47-kDa band),[3],time-dependent activation
same,IL-6 production,[4],inhibited the production of IL-6
same,cells killed,[5],approximately 35%
same,inhibition at 1 µM,[6],23%
same,inhibition at 1 µM,[7],51%
same,inhibition at 1 µM,[8],45%
same,inhibition at 1 µM,[9],27%
same,percentage of cells in the S phase,[10]; from 22% without treatment,9%
same,percentage of cells in the G1 phase,[10]; from 52% without treatment,70%
same,activation of caspase-7 (disappearance of 35-kDa band),[11],time-dependent activation
same,suppression of growth/proliferation,[12],completely suppressed the growth; also recorded: almost complete inhibition of proliferation
